Biological target: Aβ42 (Homo sapiens, UniProt P05067)
Experiment: Th-T (thioflavin-T) assay of Aβ42 aggregation
Type: biochemical
Conditions: for Th-T fluorescence of Aβ42 with compound, mean of three wells (Fig. 7a source data): concentration 50, unit not given

Sequence of Aβ42 (P05067 672-713): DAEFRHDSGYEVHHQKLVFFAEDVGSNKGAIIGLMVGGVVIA

Q: `C=C1CCC2C(C)(CCC=C(C)C)C(O)CCC2(C)C1Cc1c(OC)oc(CO)c(C(=O)OC)c1=O` (stereo not drawn) [Compound 13] was tested. Which “Th-T fluorescence of Aβ42 with compound, mean of three wells (Fig. 7a source data)” value (shortened to “Th-T fluorescence of Aβ42 with compound”) (time-course reading M143) did it give?
A: The value was 0.478.

Q: What about the “Th-T fluorescence of Aβ42 with compound” value (time-course reading M144) of the same molecule?
A: The value was 0.478.

Q: What about the “Th-T fluorescence of Aβ42 with compound” value (time-course reading M145) of the same molecule?
A: The value was 0.4736.

Q: What about the “Th-T fluorescence of Aβ42 (sheet Fig. 7a), mean of three wells” value (head suffix _10 (concentration 10), reading M63) of the same molecule?
A: Its value is 1.556.

Q: What about the “Th-T fluorescence of Aβ42 (sheet Fig. 7a), mean of three wells” value (head suffix _10 (concentration 10), reading M64) of the same molecule?
A: Its value is 1.557.

Q: And the “Th-T fluorescence of Aβ42 (sheet Fig. 7a), mean of three wells” value (head suffix _10 (concentration 10), reading M65)?
A: The value was 1.551.

Q: And the “Th-T fluorescence of Aβ42 (sheet Fig. 7a), mean of three wells” value (head suffix _10 (concentration 10), reading M66)?
A: The value was 1.553.

Q: What about the “Th-T fluorescence of Aβ42 (sheet Fig. 7a), mean of three wells” value (head suffix _10 (concentration 10), reading M67) of the same molecule?
A: Its value is 1.558.

Q: What about the “Th-T fluorescence of Aβ42 (sheet Fig. 7a), mean of three wells” value (head suffix _10 (concentration 10), reading M68) of the same molecule?
A: The value was 1.564.

Q: What about the “Th-T fluorescence of Aβ42 (sheet Fig. 7a), mean of three wells” value (head suffix _10 (concentration 10), reading M69) of the same molecule?
A: Its value is 1.56.

Q: And the “Th-T fluorescence of Aβ42 (sheet Fig. 7a), mean of three wells” value (head suffix _10 (concentration 10), reading M70)?
A: Its value is 1.554.

Q: And the “Th-T fluorescence of Aβ42 (sheet Fig. 7a), mean of three wells” value (head suffix _10 (concentration 10), reading M71)?
A: Its value is 1.549.

Q: What about the “Th-T fluorescence of Aβ42 (sheet Fig. 7a), mean of three wells” value (head suffix _10 (concentration 10), reading M72) of the same molecule?
A: Its value is 1.561.

Q: What about the “Th-T fluorescence of Aβ42 (sheet Fig. 7a), mean of three wells” value (head suffix _10 (concentration 10), reading M73) of the same molecule?
A: Its value is 1.566.

Q: And the “Th-T fluorescence of Aβ42 (sheet Fig. 7a), mean of three wells” value (head suffix _10 (concentration 10), reading M74)?
A: Its value is 1.559.

Q: And the “Th-T fluorescence of Aβ42 (sheet Fig. 7a), mean of three wells” value (head suffix _10 (concentration 10), reading M75)?
A: The value was 1.561.

Q: And the “Th-T fluorescence of Aβ42 (sheet Fig. 7a), mean of three wells” value (head suffix _10 (concentration 10), reading M76)?
A: Its value is 1.555.

Q: What about the “Th-T fluorescence of Aβ42 (sheet Fig. 7a), mean of three wells” value (head suffix _10 (concentration 10), reading M77) of the same molecule?
A: Its value is 1.558.

Q: And the “Th-T fluorescence of Aβ42 (sheet Fig. 7a), mean of three wells” value (head suffix _10 (concentration 10), reading M78)?
A: Its value is 1.561.

Q: And the “Th-T fluorescence of Aβ42 (sheet Fig. 7a), mean of three wells” value (head suffix _10 (concentration 10), reading M79)?
A: The value was 1.5579.

Q: And the “Th-T fluorescence of Aβ42 (sheet Fig. 7a), mean of three wells” value (head suffix _10 (concentration 10), reading M80)?
A: The value was 1.555.

Q: And the “Th-T fluorescence of Aβ42 (sheet Fig. 7a), mean of three wells” value (head suffix _10 (concentration 10), reading M81)?
A: Its value is 1.559.

Q: What about the “Th-T fluorescence of Aβ42 (sheet Fig. 7a), mean of three wells” value (head suffix _10 (concentration 10), reading M82) of the same molecule?
A: Its value is 1.556.

Q: And the “Th-T fluorescence of Aβ42 (sheet Fig. 7a), mean of three wells” value (head suffix _10 (concentration 10), reading M83)?
A: Its value is 1.5605.

Q: What about the “Th-T fluorescence of Aβ42 (sheet Fig. 7a), mean of three wells” value (head suffix _10 (concentration 10), reading M84) of the same molecule?
A: Its value is 1.551.

Q: What about the “Th-T fluorescence of Aβ42 (sheet Fig. 7a), mean of three wells” value (head suffix _20 (concentration 20), reading M63) of the same molecule?
A: The value was 1.031.

Q: And the “Th-T fluorescence of Aβ42 (sheet Fig. 7a), mean of three wells” value (head suffix _20 (concentration 20), reading M64)?
A: Its value is 1.035.

Q: And the “Th-T fluorescence of Aβ42 (sheet Fig. 7a), mean of three wells” value (head suffix _20 (concentration 20), reading M65)?
A: Its value is 1.042.

Q: What about the “Th-T fluorescence of Aβ42 (sheet Fig. 7a), mean of three wells” value (head suffix _20 (concentration 20), reading M66) of the same molecule?
A: Its value is 1.05.

Q: What about the “Th-T fluorescence of Aβ42 (sheet Fig. 7a), mean of three wells” value (head suffix _20 (concentration 20), reading M67) of the same molecule?
A: The value was 1.057.

Q: What about the “Th-T fluorescence of Aβ42 (sheet Fig. 7a), mean of three wells” value (head suffix _20 (concentration 20), reading M68) of the same molecule?
A: Its value is 1.061.

Q: What about the “Th-T fluorescence of Aβ42 (sheet Fig. 7a), mean of three wells” value (head suffix _20 (concentration 20), reading M69) of the same molecule?
A: The value was 1.053.

Q: And the “Th-T fluorescence of Aβ42 (sheet Fig. 7a), mean of three wells” value (head suffix _20 (concentration 20), reading M70)?
A: Its value is 1.058.

Q: And the “Th-T fluorescence of Aβ42 (sheet Fig. 7a), mean of three wells” value (head suffix _20 (concentration 20), reading M71)?
A: The value was 1.058.

Q: And the “Th-T fluorescence of Aβ42 (sheet Fig. 7a), mean of three wells” value (head suffix _20 (concentration 20), reading M72)?
A: The value was 1.061.

Q: And the “Th-T fluorescence of Aβ42 (sheet Fig. 7a), mean of three wells” value (head suffix _20 (concentration 20), reading M73)?
A: Its value is 1.063.

Q: And the “Th-T fluorescence of Aβ42 (sheet Fig. 7a), mean of three wells” value (head suffix _20 (concentration 20), reading M74)?
A: The value was 1.057.

Q: What about the “Th-T fluorescence of Aβ42 (sheet Fig. 7a), mean of three wells” value (head suffix _20 (concentration 20), reading M75) of the same molecule?
A: Its value is 1.056.

Q: What about the “Th-T fluorescence of Aβ42 (sheet Fig. 7a), mean of three wells” value (head suffix _20 (concentration 20), reading M76) of the same molecule?
A: The value was 1.058.

Q: What about the “Th-T fluorescence of Aβ42 (sheet Fig. 7a), mean of three wells” value (head suffix _20 (concentration 20), reading M77) of the same molecule?
A: Its value is 1.059.

Q: What about the “Th-T fluorescence of Aβ42 (sheet Fig. 7a), mean of three wells” value (head suffix _20 (concentration 20), reading M78) of the same molecule?
A: Its value is 1.0603.

Q: And the “Th-T fluorescence of Aβ42 (sheet Fig. 7a), mean of three wells” value (head suffix _20 (concentration 20), reading M79)?
A: Its value is 1.056.

Q: And the “Th-T fluorescence of Aβ42 (sheet Fig. 7a), mean of three wells” value (head suffix _20 (concentration 20), reading M80)?
A: The value was 1.0496.

Q: And the “Th-T fluorescence of Aβ42 (sheet Fig. 7a), mean of three wells” value (head suffix _20 (concentration 20), reading M81)?
A: Its value is 1.051.

Q: And the “Th-T fluorescence of Aβ42 (sheet Fig. 7a), mean of three wells” value (head suffix _20 (concentration 20), reading M82)?
A: The value was 1.061.

Q: And the “Th-T fluorescence of Aβ42 (sheet Fig. 7a), mean of three wells” value (head suffix _20 (concentration 20), reading M83)?
A: Its value is 1.058.

Q: And the “Th-T fluorescence of Aβ42 (sheet Fig. 7a), mean of three wells” value (head suffix _20 (concentration 20), reading M84)?
A: The value was 1.053.

Q: And the “Th-T fluorescence of Aβ42 (sheet Fig. 7a), mean of three wells” value (head suffix _50 (concentration 50), reading M63)?
A: The value was 0.4695.

Q: And the “Th-T fluorescence of Aβ42 (sheet Fig. 7a), mean of three wells” value (head suffix _50 (concentration 50), reading M64)?
A: Its value is 0.467.

Q: And the “Th-T fluorescence of Aβ42 (sheet Fig. 7a), mean of three wells” value (head suffix _50 (concentration 50), reading M65)?
A: Its value is 0.4693.

Q: What about the “Th-T fluorescence of Aβ42 (sheet Fig. 7a), mean of three wells” value (head suffix _50 (concentration 50), reading M66) of the same molecule?
A: Its value is 0.4724.

Q: What about the “Th-T fluorescence of Aβ42 (sheet Fig. 7a), mean of three wells” value (head suffix _50 (concentration 50), reading M67) of the same molecule?
A: The value was 0.4748.

Q: And the “Th-T fluorescence of Aβ42 (sheet Fig. 7a), mean of three wells” value (head suffix _50 (concentration 50), reading M68)?
A: The value was 0.4706.

Q: What about the “Th-T fluorescence of Aβ42 (sheet Fig. 7a), mean of three wells” value (head suffix _50 (concentration 50), reading M69) of the same molecule?
A: The value was 0.4713.

Q: And the “Th-T fluorescence of Aβ42 (sheet Fig. 7a), mean of three wells” value (head suffix _50 (concentration 50), reading M70)?
A: Its value is 0.4681.

Q: What about the “Th-T fluorescence of Aβ42 (sheet Fig. 7a), mean of three wells” value (head suffix _50 (concentration 50), reading M71) of the same molecule?
A: The value was 0.4721.

Q: And the “Th-T fluorescence of Aβ42 (sheet Fig. 7a), mean of three wells” value (head suffix _50 (concentration 50), reading M72)?
A: The value was 0.4741.

Reference: publication PMC7156458, “Synthetic biology based construction of biological activity-related library of fungal decalin-containing diterpenoid pyrones” (Nature Communications, 2020)
